Reference: patent publication US20240228491A1, “METHIONINE ADENOSYLTRANSFERASE INHIBITOR, PREPARATION METHOD THEREFOR AND APPLICATION THEREOF” (SCINNOHUB PHARMACEUTICAL CO., LTD., priority 2021, published 2024)
Like-named read-outs stand apart in the source and are kept apart here.

Tests used:
[1] = In vivo pharmacokinetic study in SD rats; conditions: SD rat, plasma; for AUC(0-t): read-out: Area under curve AUC(0-t); for half-life: read-out: Half life T1/2 (converted); for Cmax: read-out: Maximal concentration Cmax
Protocol: Species: SD rat. Source: Charles River Laboratory Animal Technology Co., Ltd. Number: 3 rats per dosage group.
(§1) 1.1 An appropriate amount of the test sample was accurately weighed, into which 5% DMSO, 10% polyethylene glycol-15 hydroxystearate, 85% normal saline (all in volume percent) were added sequentially, and were fully mixed via vortex or ultrasound, to obtain the dosing solution with a test sample concentration of 0.2 mg/mL for intravenous administration.
as §1, with “1.2” for “1.1”, “0.5” for “0.2”, “oral gavage” for “intravenous”
Weighing was performed before administration, and the administration amount was calculated according to the body weight. The drug was administered orally by gavage or intravenously.
On the day of the test, 100 μL of blood was collected via the jugular sinus at each set time point, and the whole blood samples were placed in anticoagulation tubes containing EDTA-K2. Whole blood samples were centrifuged at 1500 g for 10 min to separate the plasma, and the upper plasma samples were collected into sample tubes. Biological samples were stored at −40° C. to −20° C. for analysis.
According to the requirements of SOP-BA-002 (Liquid Mass Spectrometry for biological sample analysis) of Suzhou 3D BioOptima New Drug Development Co., Ltd., an LC-MS/MS analytical method was established to determine the concentrations of compounds in rat plasma, and used to determine the concentrations of compounds in the biological samples obtained in this experiment.
Pharmacokinetic parameters were calculated using the non-compartment model of Pharsight Phoenix 8.0.

HCT116 MTAP-/- cells = experiment: Activity test of HCT116 MTAP gene homozygous deletion cells (CellTiter-Glo); assay type: cell-based; conditions: Homo sapiens, HCT-116, 120 h incubation, read-out: HCT116 MTAP-/- Cell IC50
How it was run: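 Cells seeded at 1000-3000/well in RPMI-1640 + 10% FBS, serum-starved 4 h, then treated with compound in complete medium for 120 h at 37 °C, 5% CO2. Viability read by CellTiter-Glo luminescence after 60 min; % inhibition versus untreated and cell-free wells, IC50 from dose-response fit.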

Apparent clearance rate Cl ([1]; IV 1 mg/kg): 0.745 mL/min/kg
AUC(0-t) ([1]; IV 1 mg/kg): 17600 ng·h/mL
half-life ([1]; IV 1 mg/kg): 5.8 h
Cmax ([1]; IV 1 mg/kg): 2710 ng/mL
AUC(0-t) ([1]; PO 5 mg/kg): 67100 ng·h/mL
half-life ([1]; PO 5 mg/kg): 9.14 h
Cmax ([1]; PO 5 mg/kg): 4140 ng/mL
bioavailability ([1]; PO 5 mg/kg vs IV 1 mg/kg, read-out: Bioavailability F %): 76.3%
IC50 (HCT116 MTAP-/- cells): 7.43 nM
SMILES: Nc1c(-c2ccc3nccnc3c2)c(=O)n(-c2ccc(Cl)cc2)c2nc(C(F)(F)F)ccc12 [Example 36]
